This note sets out measurements from the supplement of paper PMC3493320.

The subject of the experiment is NCI-H295R. Description: IC50 (antiproliferative, ATP content). Particulars: 48 h. In a few lines: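 Adrenocortical carcinoma cells in 1536-well plates (1500 per well, serum-free DMEM plus ITS, overnight culture) were exposed for 48 h at 37 °C, 5% CO2 to pin-transferred compounds at 8 final concentrations ranging 0.6 nM to 46 µM. ATP content was then read as CellTiter-Glo luminescence and normalised to vehicle and positive-control wells. The IC50 came from logistic curve fits, and any compound lacking a concentration response was recorded as above the top dose.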
On to `c13c(C(\C(=C/N1C2CC2)C(O)=O)=O)c(c(c(c3F)N4C[C@@H](N[C@@H](C4)C)C)F)N`, for which the IC50 – broadly, the concentration that gives 50% inhibition – is above 46 µM.

On to `C=CC(C)(O)CC/C=C(\C)CCC=C(C)C` (stereo unspecified), for which the IC50 was above 46 µM. The figure for `CCCC(=O)OC(C(Cl)(Cl)Cl)P(=O)(OC)OC` (stereo unspecified) is above 46 µM; for `O=C(C2=CC=CC=C2)O[C@H]1C[C@H](CC3)N(C)[C@H]3[C@H]1[C@@](O)=O` it is above 46 µM; for `O=NN(CCCl)C(=O)NCCCl` it is above 46 µM.

In turn, `CC(C(=O)O)c1ccc(CC2CCCC2=O)cc1` (stereo unspecified) displayed an IC50 above 46 µM. Regarding `O=C(O)Cc1ccc(CCNS(=O)(=O)c2ccc(Cl)cc2)cc1`, the IC50 is above 46 µM. `N[C@@H](Cc1ccc(Oc2cc(I)c(O)c(I)c2)c(I)c1)C(=O)O` yielded an IC50 above 46 µM.

`COc1ccc(S(=O)(=O)N2c3ccc(Cl)cc3[C@@](O)(c3ccccc3Cl)[C@H]2C(=O)N2CCC[C@@H]2C(N)=O)cc1OC` displayed an IC50 above 46 µM. `CCC(COC(=O)c1cc(OC)c(OC)c(OC)c1)(c1ccccc1)N(C)C.O=C(O)/C=C\C(=O)O` (stereo unspecified) showed an IC50 above 46 µM. `Cl.Nc1cc(Cl)c(NC2=NCCN2)c(Cl)c1`: the IC50 was above 46 µM.

In turn, `Nc1ccccc1C(=O)O` registered an IC50 above 46 µM. The value for `ClC(Cl)(Cl)Cl` was above 46 µM; that for `O=C(O[C@H]1C[C@H]2CC3C[C@@H](C1)N2CC3=O)c1c[nH]c2ccccc12` was above 46 µM. The value for `Cc1cccn2c(=O)c(-c3nnn[n-]3)cnc12.[K+]` was above 46 µM; that for `CNC[C@H](O)c1ccc(O)c(O)c1` was above 46 µM; that for `O=C1N(c2ccccc2)c2ccccc2C1(Cc1ccncc1)Cc1ccncc1` was above 46 µM.

`CN(CCOc1ccc(CC2SC(=O)NC2=O)cc1)c1ccccn1` (stereo unspecified): the IC50 was above 46 µM. In the case of `CCCCCCc1ccc(O)cc1O`, the IC50 is above 46 µM. The figure for `C[C@]12CC[C@@H]3c4ccc(OC(=O)c5ccccc5)cc4CC[C@H]3[C@@H]1CC[C@@H]2O` is above 46 µM; for `CCn1cc(C(=O)O)c(=O)c2cc(F)c(N3CCNCC3)cc21` it is above 46 µM; for `COCC(C)N(C(=O)CCl)c1c(C)csc1C` (stereo unspecified) it is above 46 µM. Compound `CCN(CC)CCN1C(=O)CN=C(c2ccccc2F)c2cc(Cl)ccc21` yielded an IC50 above 46 µM. The compound `CC1=C[C@H](O)CC(C)(C)[C@H]1/C=C/C(C)=C/C=C/C(C)=C/C=C/C=C(C)/C=C/C=C(C)/C=C/C1=C(C)C[C@@H](O)CC1(C)C` showed an IC50 above 46 µM.

`CCOC(=O)n1ccn(C)c1=S` displayed an IC50 above 46 µM. `[O-][n+]1cc[n+]([O-])c2ccccc21` gave an IC50 above 46 µM. The value for `CCCCc1ncc(/C=C(\Cc2cccs2)C(=O)O)n1Cc1ccc(C(=O)O)cc1.CS(=O)(=O)O` was above 46 µM.

`CN(N=O)C(=O)N[C@@H]1[C@@H](O)[C@H](O)[C@@H](CO)O[C@@H]1O` showed an IC50 above 46 µM. `O=C(c1cc2ccccc2o1)N1CCN(Cc2ccccc2)CC1` came in with an IC50 above 46 µM. The compound `CN1CCC(=C2c3ccccc3C=Cc3ccccc32)CC1` displayed an IC50 above 46 µM. The value for `CCOC(=O)c1ccccc1O` was above 46 µM; that for `[C@]43(\C(=C2\C(c1c(O)cccc1[C@](C2C[C@H]3[C@@H](/C(=C(\C4=O)C(NCN5CCCC5)=O)O)N(C)C)(O)C)=O)O)O` (stereo partly specified) was above 46 µM. The figure for `CCN(CC)CCCC(C)Nc1cc(C=Cc2ccccc2Cl)nc2cc(Cl)ccc12` (stereo unspecified) is above 46 µM; for `CN(C)[C@@H]1C(O)=C(C(N)=O)C(=O)[C@@]2(O)C(O)=C3C(=O)c4c(O)cccc4[C@@](C)(O)[C@H]3[C@H](O)[C@@H]12.Cl` it is above 46 µM.

In turn, `O=[C@]([C@@H]3N([C@@H]2SC(C)3C)C([C@H]2NC([C@@H](C1=CC=C(C=C1)O)N)=O)=O)O` yielded an IC50 above 46 µM. The value for `CCCc1cc(=O)[nH]c(=S)[nH]1` was above 46 µM; that for `O=C1C2CC3CC1CC(O)(C3)C2` was above 46 µM; that for `CCCCOCCOCCOCc1cc2c(cc1CCC)OCO2` was above 46 µM. The value for `CCC1(CC)C(=O)NC(=O)NC1=O` was above 46 µM; that for `Cc1ncc(C[n+]2csc(CCOP(=O)(O)OP(=O)(O)O)c2C)c(N)n1.[Cl-]` was above 46 µM.

In turn, `C=C1CC[C@@]2(O)[C@H]3Cc4ccc(O)c5c4[C@@]2(CCN3CC2CC2)[C@H]1O5` yielded an IC50 above 46 µM. In turn, `N/1C(N(\C=C\1)C)=S` gave an IC50 above 46 µM. The value for `CCOC(=O)OC(C)OC(=O)[C@@H]1N2C(=O)[C@@H](NC(=O)[C@H](N)c3ccccc3)[C@H]2SC1(C)C.Cl` (stereo partly specified) was above 46 µM; that for `COc1cc(NS(=O)(=O)c2ccc(N)cc2)ncn1` was above 46 µM; that for `CC1CCc2cc(F)cc3c(=O)c(C(=O)O)cn1c23` (stereo unspecified) was above 46 µM. Compound `O=S1(=O)OC(c2ccc(O)cc2)(c2ccc(O)cc2)c2ccccc21` had an IC50 above 46 µM.

Regarding `CC[C@H]1OC(=O)C[C@@H](O)[C@H](C)[C@@H](O[C@@H]2O[C@H](C)[C@@H](O)[C@H](N(C)C)[C@H]2O)[C@@H](CCN2C[C@H](C)C[C@H](C)C2)C[C@@H](C)C(=O)/C=C/C(C)=C/[C@@H]1CO[C@@H]1O[C@H](C)[C@@H](O)[C@@H](OC)[C@H]1OC`, the IC50 is above 46 µM. The value for `C#C[C@]1(O)CC[C@H]2[C@@H]3CCC4=CC(=O)CCC4=C3C=C[C@@]21CC` was above 46 µM; that for `CNCCc1ccccn1.CS(=O)(=O)O` was above 46 µM. The figure for `CN(C(=O)CCCOc1ccc2[nH]c(=O)ccc2c1)C1CCCCC1` is above 46 µM; for `Nc1ncnc(Nc2ccccc2)n1` it is above 46 µM. The figure for `O[C@]([C@@H]1CSCN1)=O` is above 46 µM; for `O=C([O-])P(=O)([O-])[O-].[Na+].[Na+].[Na+]` it is above 46 µM.

For the compound `CC(=O)[C@@]1(O)CC[C@H]2[C@@H]3CCC4=CC(=O)CC[C@]4(C)[C@H]3CC[C@@]21C`, the IC50 is above 46 µM. On to `Clc1ccc(Cl)cc1`, for which the IC50 was above 46 µM.

Turning to `CCCN[C@H]1CCc2nc(N)sc2C1`, the IC50 was above 46 µM. The figure for `CC1(C)OC(=O)NC1=O` is above 46 µM; for `O=C(C1CCCCC1)N1CC(=O)N2CCc3ccccc3C2C1` (stereo unspecified) it is above 46 µM. The figure for `O=Cc1ccco1` is above 46 µM; for `C(=Cc1ccccc1)CN1CCN(C(c2ccccc2)c2ccccc2)CC1` it is above 46 µM. The compound `CC1(C)[C@@H](OC(=O)CCC(=O)[O-])CC[C@]2(C)[C@H]3C(=O)C=C4[C@@H]5C[C@@](C)(C(=O)[O-])CC[C@]5(C)CC[C@@]4(C)[C@]3(C)CC[C@@H]12.[Na+].[Na+]` came in with an IC50 above 46 µM.

As to `CCn1cc(C(=O)O)c(=O)c2cc(F)c(N3CCN(C)CC3)cc21.CS(=O)(=O)O`, the IC50 was above 46 µM. The figure for `CC(O)C(=O)O.CCOc1ccc2nc3cc(N)ccc3c(N)c2c1.O` is above 46 µM.

Consider `C/C(=C(/CCOP(=O)(O)O)SC(=O)c1ccccc1)N(C=O)Cc1cnc(C)nc1N`, for which the IC50 is above 46 µM. As for `O=C(O)CCCCCCCC(=O)O`, the IC50 was above 46 µM.

For the compound `C[N+]12CCC(CC1)C(OC(=O)C(O)(c1ccccc1)c1ccccc1)C2.[Br-]` (stereo unspecified), the IC50 was above 46 µM.
